US11053204B2, “Pyrimidinyloxy benzene derivatives as herbicides” (FMC Corporation, priority 2015, dated 2021)

Experiments:
Type in all cases: in vivo
[1] = tested on: oat, wild (wild oat Avena fatua); experiment: Test C preemergence, plant response rating
[2] = tested on: corn (Zea mays); experiment: Test C postemergence, plant response rating; details: for Corn plant response rating: scale 0 to 100 (0 no effect, 100 complete control)
How it was run: (§1)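 Visual injury score, 0 = no effect, 100 = complete control, assigned against untreated controls after 13 to 15 d in the greenhouse. Compounds were applied in a surfactant-containing non-phytotoxic solvent mix, preemergence to seeded loam/sand or silt loam soil, or postemergence to 1- to 4-leaf plants (2 to 18 cm).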

[3] = tested on: foxtail, giant (giant foxtail, Setaria faberii); experiment: Test C postemergence, plant response rating; details: for Foxtail, Giant plant response rating: scale 0 to 100 (0 no effect, 100 complete control)
How it was run: as §1

[4] = tested on: velvetleaf (Abutilon theophrasti); experiment: Test C postemergence, plant response rating
How it was run: as §1

[5] = tested on: nutsedge, yellow (yellow nutsedge, Cyperus esculentus); experiment: Test C postemergence, plant response rating; details: for Nutsedge, Yellow plant response rating: scale 0 to 100 (0 no effect, 100 complete control)
How it was run: as §1

[6] = tested on: oat, wild (wild oat Avena fatua); experiment: Test C postemergence, plant response rating; details: for Oat, Wild plant response rating: scale 0 to 100 (0 no effect, 100 complete control)
How it was run: as §1

[7] = tested on: ragweed (common ragweed, Ambrosia elatior); experiment: Test C postemergence, plant response rating; details: for Ragweed plant response rating: scale 0 to 100 (0 no effect, 100 complete control)
How it was run: as §1

[8] = tested on: lambsquarters (Chenopodium album); experiment: Test C postemergence, plant response rating; details: for Lambsquarters plant response rating: scale 0 to 100 (0 no effect, 100 complete control)
How it was run: as §1

[9] = tested on: wheat (winter wheat, Triticum aestivum); experiment: Test C postemergence, plant response rating
How it was run: as §1

[10] = tested on: galium (catchweed bedstraw, Galium aparine); experiment: Test C postemergence, plant response rating; details: for Galium plant response rating: scale 0 to 100 (0 no effect, 100 complete control)
How it was run: as §1

[11] = tested on: waterhemp (common waterhemp, Amaranthus rudis); experiment: Test C postemergence, plant response rating
How it was run: as §1

[12] = tested on: crabgrass, large (large crabgrass, Digitaria sanguinalis); experiment: Test C postemergence, plant response rating; details: for Crabgrass, Large plant response rating: scale 0 to 100 (0 no effect, 100 complete control)
How it was run: as §1

[13] = tested on: blackgrass (Alopecurus myosuroides); experiment: Test C postemergence, plant response rating; details: for Plant response rating, Blackgrass: scale 0 to 100; for Blackgrass plant response rating: scale 0 to 100 (0 no effect, 100 complete control)
How it was run: as §1

[14] = tested on: soybean (Glycine max); experiment: Test C postemergence, plant response rating; details: for Soybean plant response rating: scale 0 to 100 (0 no effect, 100 complete control)
How it was run: as §1

[15] = tested on: oilseed rape (Brassica napus); experiment: Test C postemergence, plant response rating; details: for Oilseed Rape plant response rating: scale 0 to 100 (0 no effect, 100 complete control)
How it was run: as §1

[16] = tested on: ryegrass, Italian (Italian ryegrass, Lolium multiflorum); experiment: Test C postemergence, plant response rating; details: for Ryegrass, Italian plant response rating: scale 0 to 100 (0 no effect, 100 complete control)
How it was run: as §1

[17] = tested on: kochia (Kochia scoparia); experiment: Test C preemergence, plant response rating
[18] = tested on: surinam grass (Brachiaria decumbens); experiment: Test C preemergence, plant response rating
[19] = tested on: galium (catchweed bedstraw, Galium aparine); experiment: Test C preemergence, plant response rating
[20] = 125 g ai/ha, scale 0 to 100 (0 no effect, 100 complete control)

## FC(F)(F)CCCCc1c(Br)cccc1Oc1ncc(Cl)cn1 [Compound 138]
[1]; 31 g ai/ha, scale 0 to 100
  Plant response rating, Oat, Wild: 0
[1]; 62 g ai/ha, scale 0 to 100
  Plant response rating, Oat, Wild: 5
[1]; 125 g ai/ha, scale of 0 to 100
  Plant response rating, Oat, Wild: 30
[2]; 16 g ai/ha, scale of 0 to 100
  Plant response rating, Corn: 15
[2]; 31 g ai/ha, scale 0 to 100
  Plant response rating, Corn: 20
[2]; 62 g ai/ha
  Corn plant response rating: 25
[2]; 125 g ai/ha
  Corn plant response rating: 30
[3]; 16 g ai/ha, scale of 0 to 100
  Plant response rating, Foxtail, Giant: 10
[3]; 31 g ai/ha, scale 0 to 100
  Plant response rating, Foxtail, Giant: 20
[3]; 62 g ai/ha
  Foxtail, Giant plant response rating: 30
[3]; 125 g ai/ha
  Foxtail, Giant plant response rating: 65
[4]; 16 g ai/ha, scale of 0 to 100
  Plant response rating, Velvetleaf: 10
[4]; 31 g ai/ha, scale 0 to 100
  Plant response rating, Velvetleaf: 35
[4]; [20]
  Velvetleaf plant response rating: 75
[5]; 16 g ai/ha, scale of 0 to 100
  Plant response rating, Nutsedge, Yellow: 0
[5]; 31 g ai/ha, scale 0 to 100
  Plant response rating, Nutsedge, Yellow: 0
[5]; 62 g ai/ha
  Nutsedge, Yellow plant response rating: 10
[5]; 125 g ai/ha
  Nutsedge, Yellow plant response rating: 30
[6]; 16 g ai/ha, scale of 0 to 100
  Plant response rating, Oat, Wild: 10
[6]; 31 g ai/ha, scale 0 to 100
  Plant response rating, Oat, Wild: 55
[6]; 62 g ai/ha
  Oat, Wild plant response rating: 50
[6]; 125 g ai/ha
  Oat, Wild plant response rating: 70
[7]; 16 g ai/ha, scale of 0 to 100
  Plant response rating, Ragweed: 0
[7]; 31 g ai/ha, scale 0 to 100
  Plant response rating, Ragweed: 30
[7]; 62 g ai/ha
  Ragweed plant response rating: 35
[7]; 125 g ai/ha
  Ragweed plant response rating: 75
[8]; 16 g ai/ha, scale of 0 to 100
  Plant response rating, Lambsquarters: 65
[8]; 31 g ai/ha, scale 0 to 100
  Plant response rating, Lambsquarters: 90
[8]; 62 g ai/ha
  Lambsquarters plant response rating: 95
[8]; 125 g ai/ha
  Lambsquarters plant response rating: 100
[9]; 16 g ai/ha, scale of 0 to 100
  Plant response rating, Wheat: 5
[9]; 31 g ai/ha, scale 0 to 100
  Plant response rating, Wheat: 5
[9]; [20]
  Wheat plant response rating: 35
[10]; 16 g ai/ha, scale of 0 to 100
  Plant response rating, Galium: 65
[10]; 31 g ai/ha, scale 0 to 100
  Plant response rating, Galium: 80
[10]; 62 g ai/ha
  Galium plant response rating: 80
[10]; 125 g ai/ha
  Galium plant response rating: 85
[11]; 16 g ai/ha, scale of 0 to 100
  Plant response rating, Waterhemp: 98
[11]; 31 g ai/ha, scale 0 to 100
  Plant response rating, Waterhemp: 98
[11]; [20]
  Waterhemp plant response rating: 100
[12]; 16 g ai/ha, scale of 0 to 100
  Plant response rating, Crabgrass, Large: 35
[12]; 31 g ai/ha, scale 0 to 100
  Plant response rating, Crabgrass, Large: 65
[12]; 62 g ai/ha
  Crabgrass, Large plant response rating: 85
[12]; 125 g ai/ha
  Crabgrass, Large plant response rating: 95
[13]; 16 g ai/ha
  Plant response rating, Blackgrass: 5
[13]; 31 g ai/ha
  Plant response rating, Blackgrass: 35
[13]; 62 g ai/ha
  Blackgrass plant response rating: 10
[13]; 125 g ai/ha
  Blackgrass plant response rating: 65
[14]; 16 g ai/ha, scale of 0 to 100
  Plant response rating, Soybean: 35
[14]; 31 g ai/ha, scale 0 to 100
  Plant response rating, Soybean: 55
[14]; 62 g ai/ha
  Soybean plant response rating: 60
[14]; 125 g ai/ha
  Soybean plant response rating: 55
[15]; 16 g ai/ha, scale of 0 to 100
  Plant response rating, Oilseed Rape: 70
[15]; 31 g ai/ha, scale 0 to 100
  Plant response rating, Oilseed Rape: 85
[15]; 62 g ai/ha
  Oilseed Rape plant response rating: 95
[15]; 125 g ai/ha
  Oilseed Rape plant response rating: 100
[16]; 16 g ai/ha, scale of 0 to 100
  Plant response rating, Ryegrass, Italian: 5
[16]; 31 g ai/ha, scale 0 to 100
  Plant response rating, Ryegrass, Italian: 5
[16]; 62 g ai/ha
  Ryegrass, Italian plant response rating: 30
[16]; 125 g ai/ha
  Ryegrass, Italian plant response rating: 35
[17]; 31 g ai/ha, scale 0 to 100
  Plant response rating, Kochia: 75
[17]; 62 g ai/ha, scale 0 to 100
  Plant response rating, Kochia: 80
[17]; 125 g ai/ha, scale of 0 to 100
  Plant response rating, Kochia: 80
[18]; 31 g ai/ha, scale 0 to 100
  Plant response rating, Surinam Grass: 65
[18]; 62 g ai/ha, scale 0 to 100
  Plant response rating, Surinam Grass: 65
[18]; 125 g ai/ha, scale of 0 to 100
  Plant response rating, Surinam Grass: 75
[19]; 31 g ai/ha, scale 0 to 100
  Plant response rating, Galium: 0
[19]; 62 g ai/ha, scale 0 to 100
  Plant response rating, Galium: 5
[19]; 125 g ai/ha, scale of 0 to 100
  Plant response rating, Galium: 5
